# Measurements taken from patent US20260232752A1, “COMBINATION THERAPY METHODS, COMPOSITIONS AND KITS” (Accure Therapeutics, S.L., priority 2019, published 2026).
# Key:
# [1] = tested on: EAE in C57BL6 mice immunized with MOG35-55; assay: Example 3: BN201 and DMF combination, progression of chronic EAE; format: in vivo, mouse; conditions: BN201 25 mg/kg i.p. alone (suboptimal), once a day six days per week from day 15
# Method: Effect in the animal model of MS (i.e., EAE in C57BL6 mice immunized with MOG35-55), similar to Example 2.
# Starting on day 15, mice were administered: • dimethyl fumarate (DMF) (group A, 10 mice), • BN201 (group B, 10 mice) • a combination thereof (group C, 10 mice) once a day for six days per week at suboptimal dosages (10 mg/kg for DMF, 25 mg/kg for BN201).
# DMF was administered orally with a rigid cannula in a saline vehicle at a volume of 10 mL/kg, while BN201 was administered via i.p. injection in a saline vehicle at a volume of 5 mL/kg. Control mice received vehicle only via both oral and i.p. injection (group D, 10 mice) or nothing at all (group E, 2 mice).
# The objective of the study was to evaluate the efficacy and safety of combination therapy with suboptimal doses of BN201 (25 mg/kg) and dimethyl-fumarate (DMF) (10 mg/kg) in the progression of chronic EAE in mice.
# During a one week acclimation period starting on day −7, mice were distributed based on body weight stratification into different experimental groups. On day 0, mice were immunized subcutaneously in both hind pads with 150 μg of MOG peptide 35-55 (Spikem, Firenze) emulsified with 50 μg of Mycobacterium tuberculosis (H37Ra strain; Difco, Detroit, MI) in incomplete Freund's adjuvant (IFA). […]
# [2] = tested on: experimental autoimmune encephalomyelitis (EAE) mouse model; assay: Study EAE-C06: dose response of BN201, clinical score in EAE mouse model; format: in vivo; conditions: almost all days of observation/treatment (Day 2 to day 30)
# Method: A third experiment (Study EAE-C06) to test dose response of BN201 was then performed using the same mouse model.
# Study EAE-C06: five different concentrations of BN201: 12.5 mg/kg, 25 mg/kg, 50 mg/kg, 100 mg/kg, and 150 mg/kg. Also sham, pathological control and FTY720 (2 mg/kg) comparator groups were included in the experiment. All groups were administered daily.
# Clinical scores were assigned to assess disease severity using the following scale: 0=normal; 0.5=Partial tail paralysis; 1=Complete tail paralysis; 1.5=Tail paralysis and loss of righting reflex; 2=Partial hind limb paralysis/paralysis of one limb; 2.5=One limb paralysis and partial loss of activity of one other limb; 3=Bilateral hind limb paralysis; 4=Moribund; 5=exitus.
# Therapeutic treatment was initiated on day 12 once each mouse started showing complete tail paralysis (Score 1).
# Data are depicted in FIG. 1 (C), wherein the clinical score for each of the tested groups is plotted per day after disease onset.
# [3] = tested on: human neuroblastoma cell line SH-SY5Y; assay: Neuroprotection against H2O2 oxidative stress, MTT assay; format: cell-based; conditions: 1 hour preincubation at 0.03-40 μM, then H2O2 15 μM 30 minutes
# Method: The objective of the study was to test the possible synergistic effect of the BN201-monomethylfumarate salt in a neuroprotective assay. Thus, BN201-monomethylfumarate salt obtained as indicated in example 5, was tested for its ability to protect the human neuroblastoma cell line SH-SY5Y against death induced by oxidative stress (i.e., hydrogen peroxide (H202)) using an MTT (3-(4,5-dimethylthiazol-2-yl)-2,5-diphenyltetrazolium bromide) cell proliferation assay.
# SH-SY5Y cells were cultivated in 50% Eagle's minimum essential medium (EMEM), 50% Ham's F12 Nutrient Mixture, 10% fetal bovine serum (FBS), 2 mM L-Glu, and 1% penicillin/streptomycin. All of the cell cultures were maintained in a humidified incubator at 5% CO2 and at 37° C. SH-SY5Y cells were preincubated for 1 hour with BN201 alone, monomethyl fumarate alone, or BN201-monomethylfumarate salt at various concentrations (n=5; concentrations: 0.03 μM, 0.1 μM, 0.3 μM, 0.5 μM, 1 μM, 3 μM, 5 μM, 10 μM, 20 μM, 40 μM) and then H2O2 (15 μM) was added to induce stress. Preincubation with sodium pyruvate (10 mM) was used as a positive control. After 30 minutes of H2O2 incubation, the medium was changed and thiazolyl blue tetrazolium bromide (MTT; Sigma Aldrich; stock concentration 10 mg/ml) was added to each well at the final concentration of 0.5 mg/ml. After 2 hours of MTT incubation the cell medium was removed, and cells were resuspended in pure dimethyl sulfoxide (DMSO). Cell viability was determined by reading the absorbance at 570 nm. Each experiment was performed in quintuplicate.
smiles,measurement,setting,value
"CC(C)CN(CC(=O)N(CCCN1CCCC1=O)CC(N)=O)C(=O)CNCCc1ccccc1F [BN201, [N-(2-(2′-Fluorophenyl)ethyl)glycyl]-[N-(2-methylpropyl)glycyl]-N-[3-(2′-oxopyrrolidinyl)-propyl]glycinamide]",course of EAE (clinical score) versus placebo,[1],suffered EAE similar to those mice treated with placebo
same,clinical score,[2]; 50 mg/kg daily,significant amelioration of the clinical score
same,clinical score,[2]; 100 mg/kg daily,significant amelioration of the clinical score
same,cell viability as a percentage compared to the control (protection from death induced by oxidative stress),[3],partially rescued neurons from death induced by oxidative stress
